As a reminder, the IC50 is the concentration that inhibits the measured activity by half.

IR800 = IRDye800CW

The test system of assay [1] is GRPr and NMB-R. The note with it: with or without a chelated metal ion; same assay as in Fig. 2; ref [31]; cited from earlier work.
The test system of assay [2] is PC-3 cells. Description: Direct binding assay in PC-3 cells by fluorescence microscopy. The note with it: 2 μM, 2 h incubation. It is filed as cell-based, human.

DO3A-CH2CO-G-ABz4-QWAVGHLM-NH2 [AMBA]: in assay [1], the IC50 was 2 to 5 nM. “IR800-GSG-t-BBN: IR800-linker-QWAVGHLM-NH2 with linker = GSG (IR800-GSGQWAVGHLM-NH2)”: in assay [2], the “Direct binding to PC-3 cells (fluorescence microscopy)” value is “bound to PC-3 cells to widely different extents”.

(Values after PMC5885141 (Molecular imaging and biology : MIB : the official …, 2014).)
